Like-named read-outs stand apart in the source and are kept apart here. Values belong to the compound of their own block, whether it stands above or below them.
Tests used:
[1] = test system: SW620 cells, HDAC6 substrate alpha-tubulin; assay: Western blot against acetylated alpha-Tubulin; format: cell-based, human; conditions: 6 h, vs DMSO control
recombinant MBLAC2 = target: T1, recombinant MBLAC2 (Homo sapiens, UniProt Q68D91); assay: Palmitoyl-CoA hydrolysis assay; format: biochemical; conditions: for EC50: assay threshold 10 nM
T1 sequence (Q68D91 1-279): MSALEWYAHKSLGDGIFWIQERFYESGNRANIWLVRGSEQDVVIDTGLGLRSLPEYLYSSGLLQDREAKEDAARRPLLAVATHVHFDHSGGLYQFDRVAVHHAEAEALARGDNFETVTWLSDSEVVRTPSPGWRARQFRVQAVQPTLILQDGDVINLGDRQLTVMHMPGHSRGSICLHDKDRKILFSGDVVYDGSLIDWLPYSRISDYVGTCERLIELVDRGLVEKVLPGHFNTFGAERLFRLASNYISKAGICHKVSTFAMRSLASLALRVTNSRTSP

[2] = test system: HDACs or other metalloproteins; assay: chemoproteomic competition pulldown assay, whole target panel; conditions: for affinities (Kd^app) in chemoproteomic assay: doses up to 3000 μM
[3] = test system: CoREST complex subunits RCOR3 and RCOR1; assay: HDAC complex selectivity from competition pulldown; format: binding, human
HDAC1 and HDAC2 = assay: binding kinetics pulldown experiment; set-up: species or system human; conditions: 4 °C, 30 μM
class IIa HDACs = assay: chemoproteomic competition pulldown assay, class IIa HDACs; format: binding, human
HDAC6 = conditions: reported values; cited from earlier work
HDACs 1–3 = assay: chemoproteomic competition pulldown assay, HDACs 1–3; format: binding, human
HDAC8 = target: T2, HDAC8 (Homo sapiens, UniProt Q9BY41); assay: HDAC-Glo enzyme activity assay; format: biochemical
T2 sequence (Q9BY41 1-377): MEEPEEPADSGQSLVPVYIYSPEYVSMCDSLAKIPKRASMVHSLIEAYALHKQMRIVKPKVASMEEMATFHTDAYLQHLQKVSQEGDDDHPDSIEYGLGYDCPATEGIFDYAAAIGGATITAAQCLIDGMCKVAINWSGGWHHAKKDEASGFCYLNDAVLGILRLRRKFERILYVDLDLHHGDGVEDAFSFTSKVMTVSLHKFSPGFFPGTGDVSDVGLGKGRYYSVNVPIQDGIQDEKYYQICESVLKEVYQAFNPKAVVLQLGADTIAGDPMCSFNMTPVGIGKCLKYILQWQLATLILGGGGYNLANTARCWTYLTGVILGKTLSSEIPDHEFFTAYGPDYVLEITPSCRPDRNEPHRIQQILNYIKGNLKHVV

[4] = EC50 of MBLAC2 hydrolase activity inhibition

Compound: O=C(NO)c1cnc(NC2(c3ccccc3)CC2)nc1 [ACY-738]
- acetylation of alpha-Tubulin Lys40 [1]: significant overacetylation

Compound: CN(C)Cc1c(C(=O)NCCOc2ccc(C(=O)NO)cc2)oc2ccccc12 [Abexinostat]
- EC50 (recombinant MBLAC2; [4]): < 10 nM

Compound: CCCCOc1ccc(CC(=O)NO)cc1 [Bufexamac]
- HDAC binding in chemoproteomic assay [2]: did not bind HDACs

Compound: O=C(/C=C/c1ccc(CN(CCO)CCc2c[nH]c3ccccc23)cc1)NO [Dacinostat]
- lower EC50 value of RCOR3 compared to RCOR1 and other CoREST members [3]: > 10 fold

Compound: Cc1cc(Cl)ccc1OCCCC(=O)NO [Droxinostat]
- HDAC binding in chemoproteomic assay [2]: did not bind HDACs

Compound: Nc1ccccc1NC(=O)c1ccc(CNC(=O)OCc2cccnc2)cc1 [Entinostat]
- time until target HDACs maximally competed (HDAC1 and HDAC2): more than 2 h

Compound: Cc1cc(C)cc(C(=O)NOCCCCCC(=O)NO)c1 [LMK235]
- class IIa target engagement (class IIa HDACs): no class IIa target engagement at all

Compound: Cn1c(/C=C/C(=O)NO)ccc1/C=C/C(=O)c1cccc(F)c1 [MC1568]
- class IIa target engagement (class IIa HDACs): no class IIa target engagement at all

Compound: CCCCN(Cc1ccc(C(=O)NO)cc1)C(=O)Nc1ccccc1 [Nexturastat A]
- pEC50 HDAC6 (HDAC6): 8.3

Compound: O=C(O)CCCc1ccccc1 [Phenylbutanoic Acid]
- affinities (Kd^app) in chemoproteomic assay [2]: three-digit micromolar

Compound: CCCCc1nc2cc(/C=C/C(=O)NO)ccc2n1CCN(CC)CC [Pracinostat]
- EC50 (recombinant MBLAC2; [4]): < 10 nM

Compound: O=C(CCCCCCNC(=O)c1cnc(N(c2ccccc2)c2ccccc2)nc1)NO [Ricolinostat]
- pKd^app range for HDACs 1–3 (HDACs 1–3): 4.9–6.0

Compound: C/C=C1\NC(=O)[C@H]2CSSCC/C=C/[C@H](CC(=O)N[C@H](C(C)C)C(=O)N2)OC(=O)[C@H](C(C)C)NC1=O [Romidepsin]
- lower EC50 value of RCOR3 compared to RCOR1 and other CoREST members [3]: > 10 fold

Compound: Nc1cc(F)ccc1NC(=O)c1ccc(CNC(=O)/C=C/c2cccnc2)cc1 [Tucidinostat]
- MBLAC2 enzyme activity, single dose screen (recombinant MBLAC2; 300 nM drug, 30 nM MBLAC2): little if any effect on enzyme activity
- effect on MBLAC2 activity (recombinant MBLAC2; at a 1,000-fold higher concentration): did not affect MBLAC2 activity

Compound: CCCC(CCC)C(=O)O [Valproic Acid]
- affinities (Kd^app) in chemoproteomic assay [2]: three-digit micromolar

Compound: O=C(CCCCCCC(=O)Nc1ccccc1)NO [Vorinostat]
- activity against HDAC8 (HDAC8): very low activity

Now from value to compound:

- EC50 (recombinant MBLAC2; read-out: EC50 of MBLAC2 hydrolase activity inhibition): < 10 nM
Compound: CC(C)[C@H](C(=O)Nc1ccc(C(=O)NO)cc1)c1ccccc1 [AR-42]

- lower EC50 value of RCOR3 compared to RCOR1 and other CoREST members [3]: > 10 fold
Compound: CN(C)c1ccc(C(=O)NCCCCCCC(=O)NO)cc1 [M344]

From publication PMC9339481 (Nature chemical biology, 2022)
